What is called ED50 is the dose at which the effect has come halfway, by size or by number of responders. A word on the IC50: it is the point on the concentration scale where inhibition reaches its midpoint. The term EC50 denotes the concentration needed to bring the measured effect to its halfway point.

Series [1] deals with Sprague-Dawley rats. The experiment in a line: Loss of righting reflexes (LORR) assay, sedative-hypnotic activity. The note with it: for ED50: Rattus norvegicus, iv, read-out: ED50 for loss of righting reflexes; for dose producing loss of righting reflexes in all rats: IV.
Protocol: Briefly, the desired dose of drug in dimethyl sulfoxide vehicle (0.1-0.3 mL) was rapidly (<5 s) injected through a 24-gauge intravenous catheter placed in a tail vein. This was followed by a 0.5-mL normal saline flush. Immediately after injection, rats were turned supine. […] The duration of LORR was defined as the time from drug injection until the animal spontaneously righted itself onto all four legs.
The conditions of series [2]: 50 mg/kg intravenous dose; cited from earlier work.
In series [3] the target is T1, 11β-hydroxylase (Rattus norvegicus, UniProt P15393).
T1 construct: tissue BioreclamationlVT; host or cells: membranes (homogenate pellet) from Sprague-Dawley rat adrenal glands
T1 sequence (P15393 25-499): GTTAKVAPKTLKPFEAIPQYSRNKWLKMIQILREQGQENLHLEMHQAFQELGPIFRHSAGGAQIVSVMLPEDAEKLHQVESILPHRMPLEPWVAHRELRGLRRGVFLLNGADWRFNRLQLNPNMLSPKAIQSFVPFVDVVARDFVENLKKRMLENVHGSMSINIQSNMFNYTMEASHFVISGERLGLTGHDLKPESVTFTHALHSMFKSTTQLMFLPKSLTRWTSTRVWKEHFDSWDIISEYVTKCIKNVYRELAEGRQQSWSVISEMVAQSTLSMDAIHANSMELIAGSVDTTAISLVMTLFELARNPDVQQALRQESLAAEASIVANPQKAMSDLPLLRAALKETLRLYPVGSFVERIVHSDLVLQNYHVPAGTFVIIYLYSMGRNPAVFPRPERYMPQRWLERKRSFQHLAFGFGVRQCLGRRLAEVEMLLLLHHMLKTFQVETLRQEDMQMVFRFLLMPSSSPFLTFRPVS
The experiment in a line: Displacement of [3H]-etomidate from adrenal membranes. Format: binding. As to the method:
Briefly, 4 adrenal glands were thawed for each preparation, placed on a glass stand, cut into pieces, and then added to ice-cold preparation buffer (HEPES 10 mM, EDTA 1 mM, leupeptin 10 μg/mL, chymostatin 10 μg/mL, pepstatin A 10 μg/mL, aprotinin 2 μg/mL, polymethanesulfonyl fluoride 1 mM and ethanol 10 μg/mL). After homogenization, carboxylesterases were inactivated by incubating with 1 mM diisopropyl fluorophosphate (Sigma-Aldrich) for 60 min. The mixture was then centrifuged and the resulting pellet was washed twice. The final pellet was then re-suspended in buffer by manual homogenization, passed through a 23-gauge needle three times, aliquoted into 1 mL eppendorf tubes, and stored at −80° C. until used. The protein concentration in these samples was quantified using a Pierce BCA Protein Assay Kit (ThermoFisher, Rockford, Ill., USA). All binding experiments were performed in glass vials at room temperature with the final concentration of protein adjusted to 0.07 mg/mL. The reported data were obtained using 3 separate preparations.
After equilibration, the mixture was passed through a pre-soaked (with 0.5% polyethylenimine in water for 2 h) 25 mm GF/B glass fiber filter under suction, the filter was immediately washed twice with 5 mL of assay buffer. After drying under a heat lamp for two hours, each filter was transferred to a scintillation vial. Liquiscint scintillation cocktail (National Diagnostics, Atlanta, Ga., USA) was added to the vial and the radioactivity in the vial quantified using a Packard Tri-Carb liquid scintillation counter (Meriden, Conn., USA). The concentration-response relationships for inhibition of [^3H]-etomidate by etomidate and dimethoxy-etomidate were fit to one and two site models, respectively, using Prism 6 for Mac OS X.

The next series addresses T2, α1β3γ2L GABAA receptor (Homo sapiens, UniProt P14867+P28472).
T2 construct: expressed in transfected cells; host or cells: Xenopus oocytes injected with mRNA
The experiment in a line: GABAA receptor electrophysiology, potentiation of EC5 GABA-evoked currents in Xenopus oocytes. Type of series: cell-based. Conditions: for maximum peak current at high drug concentrations, % of that produced by 1 mM GABA: Hill fit, EC5 GABA + drug. The protocol: Oocytes were then incubated in ND96 buffer (96 mM NaCl, 2 mM KCl, 1.8 mM CaCl2, 1 mM MgCl2, 5 mM HEPES, pH=7.4) containing 0.05 mg/mL of gentamicin for 18 to 48 hours at 18° C. before electrophysiological study. […] For each oocyte, a GABA concentration-peak current response curve was generated to define the GABA concentration that elicits 5% of the current evoked by 1 mM GABA (i.e., EC5 GABA). The effect of drug (etomidate or dimethoxy-etomidate) was then defined in that oocyte by perfusing it with EC5 GABA alone for 15-20 s followed immediately by EC5 GABA+drug at the desired concentration for 20-60 s. The resulting current response was then recorded. The peak current response recorded in the presence of EC5 GABA+drug was then normalized to the peak current response evoked by 1 mM GABA. Between electrophysiological recordings, oocytes were perfused with buffer for at least 3 min to remove GABA (and drug, if present) and to allow receptors to recover from desensitization.
In these fits, the minimum was constrained to 5% (by definition, for EC5 evoked currents).

The test system of series [4] is adrenocortical steroid synthesis. The experiment in a line: ACTH-stimulation test in dexamethasone-suppressed rats, plasma adrenocortical steroids by ELISA. Conditions: for inhibition of adrenocortical steroid synthesis (FIG. 10): rats, 3 mg/kg IV dose. (In general: In an ELISA, binding on a coated surface is turned into a signal by an enzyme label.)
Protocol: Briefly, rats were pretreated with dexamethasone (0.2 mg/kg intravenously) to reduce endogenous ACTH production and minimize baseline adrenocortical steroid concentrations. Two hours later and after receiving a second dexamethasone dose, rats received ACTH1-24 (IV) and the desired dose of either etomidate or dimethoxy-etomidate solubilized in water containing a 1:1 molar ratio of Captisol (Ligand Pharmaceuticals, San Diego, Calif.) or water containing Captisol vehicle alone as a control. Fifteen minutes later, a blood sample was drawn and ACTH-stimulated adrenocortical steroid concentrations in the plasma were determined using enzyme-linked immunosorbent assays and a 96-well plate reader (Molecular Devices, Sunnyvale, Calif.).
The test system of series [5] is Sprague-Dawley rats. The experiment in a line: Myoclonic movements in rats, two-way crossover. Format: in vivo, rat. Conditions: 3 mg/kg IV; for occurrence of myoclonus and LoRR: 30-minute observation, n=8. The protocol:
Rats were immediately tested for LoRR and the number of myoclonic events was recorded during each 5-minute epoch for 30 minutes. A myoclonic event was defined as an unproductive (i.e., not associated with LoRR, feeding, or grooming behaviors) movement. Each distinct jerk or tremor constituted a single event. To avoid potentially confounding movements associated with bruxing, boggling, sniffing, and grooming, myoclonus was only considered to occur in the head and jaw when there was the presence of abnormal tongue lolling and jaw movement, or a sharp head movement out of sync with the rats breathing. At the end of the 30-minute observation period, rats were returned to their cages. After a 24-hour recovery period, each rat was crossed over to the other drug group and the experiment repeated.

Series [6] addresses T3, 11β-hydroxylase (Homo sapiens, UniProt P15538).
T3 sequence (P15538 25-503): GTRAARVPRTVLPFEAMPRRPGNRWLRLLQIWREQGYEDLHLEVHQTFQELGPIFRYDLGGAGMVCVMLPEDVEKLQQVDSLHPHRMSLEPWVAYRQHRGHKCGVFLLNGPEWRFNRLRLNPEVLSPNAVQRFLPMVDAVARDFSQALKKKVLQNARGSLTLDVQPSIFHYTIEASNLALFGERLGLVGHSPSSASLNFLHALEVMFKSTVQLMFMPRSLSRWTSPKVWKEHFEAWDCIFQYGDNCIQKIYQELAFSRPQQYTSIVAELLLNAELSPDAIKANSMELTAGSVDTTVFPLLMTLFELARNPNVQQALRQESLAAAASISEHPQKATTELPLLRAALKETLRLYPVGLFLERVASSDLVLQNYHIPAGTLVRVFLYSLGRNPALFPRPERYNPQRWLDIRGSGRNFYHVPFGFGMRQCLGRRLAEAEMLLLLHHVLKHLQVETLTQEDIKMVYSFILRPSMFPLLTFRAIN
Conditions: previously reported work; cited from earlier work.

Setting [7] is: 0.3 mg/kg IV, 15 min, vs vehicle control.
[8] abbreviates: 3 mg/kg IV, 15 min, vs vehicle control.
[9] abbreviates: 50 mg/kg IV, vs vehicle control.

Structures are written as SMILES. Read-outs that look alike come from different tables or passages of the source. Where only a bound is given, the exact number is not on record here.

T2 sequence (P14867 28-456): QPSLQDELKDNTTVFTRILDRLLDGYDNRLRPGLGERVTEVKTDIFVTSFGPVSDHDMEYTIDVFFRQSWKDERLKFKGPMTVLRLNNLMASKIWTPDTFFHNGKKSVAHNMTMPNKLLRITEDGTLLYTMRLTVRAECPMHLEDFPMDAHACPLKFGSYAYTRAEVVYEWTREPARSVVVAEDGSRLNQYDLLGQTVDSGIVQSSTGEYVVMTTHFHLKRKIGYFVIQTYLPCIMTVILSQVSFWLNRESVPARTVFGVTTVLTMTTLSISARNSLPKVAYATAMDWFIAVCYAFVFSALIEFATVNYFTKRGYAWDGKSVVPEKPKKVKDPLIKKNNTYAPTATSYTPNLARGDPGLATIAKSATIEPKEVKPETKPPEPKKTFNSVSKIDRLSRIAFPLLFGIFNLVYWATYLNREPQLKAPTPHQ
T2 sequence (P28472 26-473): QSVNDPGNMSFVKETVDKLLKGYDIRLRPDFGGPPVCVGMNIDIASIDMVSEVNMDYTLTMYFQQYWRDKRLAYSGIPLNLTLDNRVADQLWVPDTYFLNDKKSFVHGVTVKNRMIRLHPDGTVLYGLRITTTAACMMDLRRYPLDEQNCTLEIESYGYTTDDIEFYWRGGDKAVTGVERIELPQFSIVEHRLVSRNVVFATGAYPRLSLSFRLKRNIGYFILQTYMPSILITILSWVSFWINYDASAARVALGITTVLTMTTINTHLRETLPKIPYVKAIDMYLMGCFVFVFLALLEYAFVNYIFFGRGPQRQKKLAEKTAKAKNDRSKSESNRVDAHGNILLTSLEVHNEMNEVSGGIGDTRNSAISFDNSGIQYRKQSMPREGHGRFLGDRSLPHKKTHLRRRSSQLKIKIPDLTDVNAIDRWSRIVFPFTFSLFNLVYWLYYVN
T2 sequence (P18507 40-475 partner): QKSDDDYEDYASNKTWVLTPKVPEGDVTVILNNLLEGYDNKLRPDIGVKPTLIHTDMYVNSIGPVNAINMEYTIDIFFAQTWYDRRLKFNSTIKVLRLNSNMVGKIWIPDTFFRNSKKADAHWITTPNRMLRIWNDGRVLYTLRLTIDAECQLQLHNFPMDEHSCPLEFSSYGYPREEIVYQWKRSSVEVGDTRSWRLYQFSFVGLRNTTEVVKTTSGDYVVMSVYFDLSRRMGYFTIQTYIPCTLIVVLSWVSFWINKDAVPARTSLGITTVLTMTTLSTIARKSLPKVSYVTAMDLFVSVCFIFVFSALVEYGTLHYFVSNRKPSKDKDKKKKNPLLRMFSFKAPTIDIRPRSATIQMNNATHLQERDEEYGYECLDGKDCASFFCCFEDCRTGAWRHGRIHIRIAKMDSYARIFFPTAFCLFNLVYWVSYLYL

With `CCOC(=O)c1cncn1[C@H](C)c1ccccc1` [etomidate, ethyl (R)-1-(1-phenylethyl)-1H-imidazole-5-carboxylate, reference compound], the “time required for righting reflexes to return (LoRR duration)” value with Sprague-Dawley rats [1] (3 mg/kg IV, highest etomidate dose studied) is 16.3 ± 0.5 min. Further, in the series with Sprague-Dawley rats [1], the 50% effective dose (ED50) was found to be 0.77 ± 0.17 mg/kg and the “dose producing loss of righting reflexes in all rats” value is ≥ 1 mg/kg. For the same compound, the lethality result in series [2] is “lethal”. The 50% inhibitory concentration (IC50) on 11β-hydroxylase [3] worked out at 0.021 µM. The “maximum peak current at high drug concentrations, % of that produced by 1 mM GABA” value at α1β3γ2L GABAA receptor is listed as 103%. Besides, in series [4] (0.3 mg/kg IV), the “effect on ACTH-stimulated plasma 11-deoxycorticosterone concentration” value is given as “neither etomidate nor dimethoxy-etomidate altered”, the “effect on ACTH-stimulated plasma pregnenolone concentration” value is given as “neither etomidate nor dimethoxy-etomidate altered” and the “effect on ACTH-stimulated plasma progesterone concentration” value is on record as “neither etomidate nor dimethoxy-etomidate altered”. Further, the “reduction of ACTH-stimulated plasma corticosterone concentration” value in series [4] (setting [7]) is recorded as “no significant effect”. In series [4] (3 mg/kg IV), the “effect on ACTH-stimulated plasma 11-deoxycorticosterone concentration” value is “without significantly affecting”, the “effect on ACTH-stimulated plasma pregnenolone concentration” value is “without significantly affecting” and the “effect on ACTH-stimulated plasma progesterone concentration” value is “without significantly affecting”. The “ACTH-stimulated plasma corticosterone concentration” value in series [4] (3 mg/kg IV, 15 min) is listed as 19±11 ng/m. In addition, the “reduction of ACTH-stimulated plasma corticosterone concentration” value in series [4] (setting [8]) turned out to be 87%. In addition, the “maximum mean (±SEM) number of myoclonic events per rat” value in the series with Sprague-Dawley rats [5] (5-10-minute epoch) is 13.8±2.2. Also, in the series with Sprague-Dawley rats [5] (30-minute observation period), the “mean (±SEM) total number of myoclonic events in each rat” value came out at 34±2.4. Besides, in the series with Sprague-Dawley rats [5], the “occurrence of myoclonus and LoRR” value was “produced myoclonus and LORR in all rats”.

As for `CCOC(=O)c1cncn1[C@H](C)c1cc(OC)cc(OC)c1` [dimethoxy-etomidate, Ethyl (R)-1-(1-(3,5-dimethoxyphenyl)ethyl)-1H-imidazole-5-carboxylate], the “time required for righting reflexes to return (LoRR duration)” value in the series on Sprague-Dawley rats [1] (100 mg/kg IV) came out at 2.2 ± 0.7 min. The median effective dose (ED50) with Sprague-Dawley rats [1] came to 72 ± 13 mg/kg. Moreover, in the series on Sprague-Dawley rats [1] (from LoRR ED50s), the “sedative-hypnotic potency compared to etomidate” value is given as “two order of magnitude reduction”. The “dose producing loss of righting reflexes in all rats” value in the series with Sprague-Dawley rats [1] is listed as 100 mg/kg. The IC50 on 11β-hydroxylase [3] came out at 0.0079 µM; at 11β-hydroxylase [3] (read-out: IC50 for displacement of [3H]-etomidate, low affinity site, 2 nM [3H]-etomidate, two site fit), 4.27 µM. The “high affinity site share of all sites” value at 11β-hydroxylase [3] (two site fit) is on record as 55%. Moreover, the concentration for a half-maximal effect (EC50) at α1β3γ2L GABAA receptor is 210 µM. On α1β3γ2L GABAA receptor (EC5 GABA evoked currents), the “magnitude of peak current enhancement relative to that produced by the same concentration of etomidate” value is reported as “≤ ⅛”. For the same compound, on α1β3γ2L GABAA receptor, the “maximum peak current at high drug concentrations, % of that produced by 1 mM GABA” value came out at 11%. Besides, the “effect on ACTH-stimulated plasma 11-deoxycorticosterone concentration” value in series [4] (0.3 mg/kg IV) is reported as “neither etomidate nor dimethoxy-etomidate altered”; in series [4] (3 mg/kg IV) it was “without significantly affecting”. For the same compound, the “effect on ACTH-stimulated plasma pregnenolone concentration” value in series [4] (0.3 mg/kg IV) was “neither etomidate nor dimethoxy-etomidate altered”; in series [4] (3 mg/kg IV) it was “without significantly affecting”; in series [4] (50 mg/kg IV) it was “unaffected”. Further, the “effect on ACTH-stimulated plasma progesterone concentration” value in series [4] (0.3 mg/kg IV) is listed as “neither etomidate nor dimethoxy-etomidate altered”; in series [4] (3 mg/kg IV) it was “without significantly affecting”; in series [4] (50 mg/kg IV), “unaffected”. In addition, the “ACTH-stimulated plasma corticosterone concentration” value in series [4] (0.3 mg/kg IV, 15 min) was 56 ± 13 ng/mL; in series [4] (3 mg/kg IV, 15 min), 19±10 ng/m; in series [4] (50 mg/kg IV), 12 ± 1 ng/mL. Moreover, the “reduction of ACTH-stimulated plasma corticosterone concentration” value is reported as 63% in series [4] (setting [7]), 87% in series [4] (setting [8]) and 95% in series [4] (setting [9]). Moreover, the “ACTH-stimulated plasma 11-deoxycorticosterone concentration” value in series [4] (50 mg/kg IV) amounted to 24 ± 12 ng/mL. Further, the “reduction of ACTH-stimulated plasma 11-deoxycorticosterone concentration” value in series [4] (setting [9]) came out at 69%. For the same compound, the “occurrence of myoclonus and LoRR” value in the series with Sprague-Dawley rats [5] is reported as “produced no myoclonic events or LoRR in any rat”.

Take `CCOC(=O)c1cccn1[C@H](C)c1ccccc1` [carboetomidate, ethyl (R)-1-(1-phenylethyl)-1H-pyrrole-2-carboxylate]: the “binding affinity to 11β-hydroxylase and adrenocortical inhibitory potency relative to etomidate” value at 11β-hydroxylase [6] is “reduced by three-orders of magnitude”.

`CCOC(=O)c1cncn1[C@H](C)c1cccc2ccccc12` [Example 4, ethyl (R)-1-(1-(naphthalen-1-yl)ethyl)-1H-imidazole-5-carboxylate]: the “inhibition of adrenocortical steroid synthesis (FIG. 10)” value in series [4] is “similarly inhibited adrenocortical steroid synthesis”.

As to `CCOC(=O)c1cncn1[C@H](C)c1ccc2ccccc2c1` [Example 5, ethyl (R)-1-(1-(naphthalen-2-yl)ethyl)-1H-imidazole-5-carboxylate], the “inhibition of adrenocortical steroid synthesis (FIG. 10)” value in series [4] is given as “similarly inhibited adrenocortical steroid synthesis”.

The values are drawn from patent US11098017B2, “Compounds for treating disorders associated with abnormal steroidogenesis” (The General Hospital Corporation, priority 2017, dated 2021).
